Source: US10875837B2, “Inhibitors of the fibroblast growth factor receptor” (BLUEPRINT MEDICINES CORPORATION, priority 2013, dated 2020)

Assays:
[1] = molecular target: T1, wild type FGFR-4 (Homo sapiens, UniProt P22455); experiment: FGFR-4 wild type assay at Km (Caliper electrophoretic mobility shift); format: biochemical; conditions: wild type FGFR-4, 400 uM ATP, 25 C, 90 minutes; read-out: INH-FGFR4
T1 construct: purchased Carna Biosciences, Inc
Protocol: Biochemical Activity Assessment In order to assess the activity of chemical compounds against the relevant kinase of interest, the Caliper LifeSciences electrophoretic mobility shift technology platform is utilized. Fluorescently labeled substrate peptide is incubated in the presence dosed levels of compounds, a set concentration of kinase and of ATP, so that a reflective proportion of the peptide is phosphorylated. At the end of the reaction, the mix of phosphorylated (product) and non-phosphorylated (substrate) peptides are passed through the microfluidic system of the Caliper LabChip® EZ Reader II, under an applied potential difference. The presence of the phosphate group on the product peptide provides a difference in mass and charge between the product peptide and the substrate peptide, resulting in a separation of the substrate and product pools in the sample. As the pools pass the LEDS within the instrument, these pools are detected and resolved as separate peaks. The ratio between these peaks therefore reflects the activity of the chemical matter at that concentration in that well, under those conditions.
FGFR-4 wild type assay at Km: In each well of a 384-well plate, 0.5 ng/ul of wild type FGFR-4 (Carna Biosciences, Inc.) was incubated in a total of 12.5 ul of buffer (100 mM HEPES pH 7.5, 0.015% Brij 35, 10 mM MgCl2, 1 mM DTT) with 1 uM CSKtide (5-FAM-KKKKEEIYFFFG-NH2) and 400 uM ATP at 25 C for 90 minutes in the presence or absence of a dosed concentration series of compound (1% DMSO final concentration). The reaction was stopped by the addition of 70 ul of Stop buffer (100 mM HEPES pH 7.5, 0.015% Brij 35, 35 mM EDTA and 0.2% of Coating Reagent 3 (Caliper Lifesciences)). The plate was then read on a Caliper LabChip® EZ Reader II (protocol settings: −1.9 psi, upstream voltage −700, downstream voltage −3000, post sample sip 35 s).

[2] = tested on: pMAPK (Thr202/Tyr204) in MDA-MB453 or DMS 114 cells; experiment: Detection of pMAPK (Thr202/Tyr204) using Alpha ELISA (pERK alphaLISA); format: cell-based; conditions: 1 hr incubation with compound; cell line not given (MDA-MB453 or DMS 114)
Protocol: Detection of pMAPK (Thr202/Tyr204) Using Alpha ELISA
MDA-MB453 or DMS 114 cells were plated in 96-well cell culture plates at a density of 1×10^5 cells or 3×10^4 cells, respectively. Cells were allowed to attach, and growth media was replaced with serum free media. Compounds were added at the indicated concentrations. Following 1 hr incubation in the presence of compound, cells were collected. For the DMS 114 cells, 100 ng/mL FGF2 was added for 10 min prior to cell collection. Cell lysates were prepared and processed according to manufacturer instruction (AlphaScreen® SureFire™ Phospho-ERK 1/2 Kit (Perkin Elmer).

T1 sequence (P22455 22-802): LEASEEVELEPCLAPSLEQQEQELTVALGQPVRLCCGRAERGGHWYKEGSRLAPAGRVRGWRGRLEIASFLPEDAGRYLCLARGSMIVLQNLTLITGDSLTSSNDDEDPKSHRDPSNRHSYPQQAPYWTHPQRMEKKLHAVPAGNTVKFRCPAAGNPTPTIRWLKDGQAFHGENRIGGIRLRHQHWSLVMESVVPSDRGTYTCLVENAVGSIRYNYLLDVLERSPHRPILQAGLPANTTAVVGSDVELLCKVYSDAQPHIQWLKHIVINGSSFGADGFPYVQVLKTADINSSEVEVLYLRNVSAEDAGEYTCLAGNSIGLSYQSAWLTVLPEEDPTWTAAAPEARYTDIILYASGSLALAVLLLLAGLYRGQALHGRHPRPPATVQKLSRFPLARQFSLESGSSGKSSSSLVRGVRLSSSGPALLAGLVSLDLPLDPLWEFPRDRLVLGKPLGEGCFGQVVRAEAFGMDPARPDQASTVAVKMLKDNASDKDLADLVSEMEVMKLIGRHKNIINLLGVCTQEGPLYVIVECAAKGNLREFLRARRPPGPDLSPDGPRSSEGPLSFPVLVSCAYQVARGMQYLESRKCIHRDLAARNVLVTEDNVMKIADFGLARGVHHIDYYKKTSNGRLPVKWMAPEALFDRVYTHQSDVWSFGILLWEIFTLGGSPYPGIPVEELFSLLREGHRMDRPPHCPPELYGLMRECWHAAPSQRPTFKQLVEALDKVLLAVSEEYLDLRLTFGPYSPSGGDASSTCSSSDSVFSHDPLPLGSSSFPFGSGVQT

IC50 [1] [nM]	IC50 [2] [nM]	SMILES
10 to 100	100 to 1000	C=CC(=O)N[C@H]1CN(C(=O)CN)C[C@H]1Nc1ncc2cc(-c3c(Cl)c(OC)cc(OC)c3Cl)ccc2n1 (racemic) [Compound 74]
10 to 100	100 to 1000	C=CC(=O)N[C@H]1CN(C(=O)OC(C)(C)C)C[C@H]1Nc1ncc2cc(-c3c(Cl)c(OC)cc(OC)c3Cl)ccc2n1 (racemic) [Compound 90]
10 to 100	10 to 100	C=CC(=O)N[C@H]1CCC[C@H]1Nc1ncc2cc(-c3c(Cl)c(OC)cc(OC)c3Cl)ccc2n1 [Compound 24]
10 to 100	100 to 1000	C=CC(=O)N[C@@H]1COC[C@@H]1Nc1ncc2cc(-c3c(Cl)c(OC)cc(OC)c3Cl)ccc2n1 [Compound 26]
< 10	10 to 100	C=CC(=O)NC1COCC1Nc1ncc2cc(-c3c(Cl)c(OC)cc(OC)c3Cl)ccc2n1 (stereo not shown) [Compound 28]
10 to 100	< 10	C=CC(=O)N[C@H]1COC[C@H]1Nc1ncc2cc(-c3c(Cl)c(OC)cc(OC)c3Cl)cnc2n1 [Compound 29]
< 10	< 10	C=CC(=O)N[C@H]1C[C@@H]2C[C@@H]2[C@H]1Nc1ncc2cc(-c3c(Cl)c(OC)cc(OC)c3Cl)ccc2n1 [Compound 32, N-((1S,2R,3S,5S)-2-((6-(2,6-dichloro-3,5-dimethoxyphenyl)quinazolin-2-yl)amino)bicyclo[3.1.0]hexan-3-yl)acrylamide]
10 to 100	10 to 100	C=CC(=O)N[C@H]1CCCC[C@H]1Nc1ncc2cc(-c3c(Cl)c(OC)cc(OC)c3Cl)ccc2n1 [Compound 34, N-((1S,2R)-2-((6-(2,6-dichloro-3,5-dimethoxyphenyl)quinazolin-2-yl)amino)cyclohexyl)acrylamide]
< 10	< 10	C=CC(=O)N[C@H]1CCOC[C@H]1Nc1ncc2cc(-c3c(Cl)c(OC)cc(OC)c3Cl)ccc2n1 [Compound 40, N-((3S,4S)-3-((6-(2,6-dichloro-3,5-dimethoxyphenyl)quinazolin-2-yl)amino)tetrahydro-2H-pyran-4-yl)acrylamide]
10 to 100	100 to 1000	C=CC(=O)N[C@H]1COCC[C@H]1Nc1ncc2cc(-c3c(Cl)c(OC)cc(OC)c3Cl)ccc2n1 [Compound 41]
10 to 100	10 to 100	C=CC(=O)N[C@H]1CCOC[C@H]1Nc1ncc2cc(-c3c(Cl)c(OC)cc(OC)c3Cl)cnc2n1 [Compound 44]
10 to 100	10 to 100	C=CC(=O)N[C@H]1CCC[C@H]1Nc1ncc2cc(-c3c(Cl)c(OC)cc(OC)c3Cl)cc(F)c2n1 [Compound 45]
< 10	< 10	C=CC(=O)N[C@H]1COC[C@H]1Nc1ncc2cc(-c3c(Cl)c(OC)cc(OC)c3Cl)cc(F)c2n1 [Compound 46]
< 10	< 10	C=CC(=O)N[C@H]1CCOC[C@H]1Nc1ncc2cc(-c3c(Cl)c(OC)cc(OC)c3Cl)c(F)cc2n1 [Compound 51]
< 10	< 10	C=CC(=O)N[C@H]1CCOC[C@H]1Nc1ncc2cc(-c3c(Cl)c(OC)cc(OC)c3Cl)cc(F)c2n1 [Compound 52]
< 10	< 10	C=CC(=O)N[C@H]1COC[C@H]1Nc1ncc2cc(-c3c(Cl)c(OC)cc(OC)c3Cl)cc(Cl)c2n1 [Compound 54]
< 10	< 10	C=CC(=O)N[C@H]1COC[C@H]1Nc1ncc2cc(-c3c(Cl)c(OC)cc(OC)c3Cl)c(Cl)cc2n1 [Compound 55]

IC50 [1] [nM]	IC50 [2] [nM]	SMILES
< 10	< 10	C=CC(=O)N[C@H]1CN(C(C)=O)C[C@H]1Nc1ncc2cc(-c3c(Cl)c(OC)cc(OC)c3Cl)ccc2n1 [Compound 56, N-((3S,4R)-1-acetyl-4-((6-(2,6-dichloro-3,5-dimethoxyphenyl)quinazolin-2-yl)amino)pyrrolidin-3-yl)acrylamide]
< 10	10 to 100	C=CC(=O)NC1CN(C(C)=O)CC1Nc1ncc2cc(-c3c(Cl)c(OC)cc(OC)c3Cl)ccc2n1 (stereo not shown) [Compound 58]
< 10	10 to 100	C=CC(=O)N[C@H]1CCC[C@H]1Nc1ncc2cc(-c3c(Cl)c(OC)cc(OC)c3Cl)c(=O)n(CC)c2n1 [Compound 62, N-((1S,2R)-2-((6-(2,6-dichloro-3,5-dimethoxyphenyl)-8-ethyl-7-oxo-7,8-dihydropyrido[2,3-d]pyrimidin-2-yl)amino)cyclopentyl)acrylamide]
10 to 100	100 to 1000	C=CC(=O)N[C@H]1CCC[C@H]1Nc1ncc2nc(-c3c(Cl)c(OC)cc(OC)c3Cl)c(=O)n(CC)c2n1 [Compound 63]
< 10	< 10	C=CC(=O)N[C@H]1CCOC[C@H]1Nc1cc2c(cn1)cc(-c1c(Cl)c(OC)cc(OC)c1Cl)c(=O)n2C [Compound 64]
< 10	10 to 100	C=CC(=O)NC1CN(C(=O)CO)CC1Nc1ncc2cc(-c3c(Cl)c(OC)cc(OC)c3Cl)ccc2n1 (stereo not shown) [Compound 75]
< 10	10 to 100	C=CC(=O)N[C@H]1CN(C(=O)CO)C[C@H]1Nc1ncc2cc(-c3c(Cl)c(OC)cc(OC)c3Cl)ccc2n1 [Compound 76]
10 to 100	10 to 100	C=CC(=O)N[C@H]1CCCC[C@H]1Nc1ncc2cc(-c3c(Cl)c(OC)cc(OC)c3Cl)c(=O)n(CC)c2n1 [Compound 77]
< 10	< 10	C=CC(=O)N[C@H]1CN(C(=O)C2CC2)C[C@H]1Nc1ncc2cc(-c3c(Cl)c(OC)cc(OC)c3Cl)ccc2n1 [Compound 80]
< 10	< 10	C=CC(=O)N[C@H]1CN(C(=O)NCC)C[C@H]1Nc1ncc2cc(-c3c(Cl)c(OC)cc(OC)c3Cl)ccc2n1 [Compound 83, (3S,4R)-3-acrylamido-4-((6-(2,6-dichloro-3,5-dimethoxyphenyl)quinazolin-2-yl)amino)-N-ethylpyrrolidine-1-carboxamide]
< 10	10 to 100	C=CC(=O)N[C@H]1CN(C(=O)OCC)C[C@H]1Nc1ncc2cc(-c3c(Cl)c(OC)cc(OC)c3Cl)ccc2n1 [Compound 84]
< 10	10 to 100	C=CC(=O)NC1CN(C(=O)COC)CC1Nc1ncc2cc(-c3c(Cl)c(OC)cc(OC)c3Cl)ccc2n1 (stereo not shown) [Compound 85]
< 10	< 10	C=CC(=O)N[C@H]1CN(C(=O)COC)C[C@H]1Nc1ncc2cc(-c3c(Cl)c(OC)cc(OC)c3Cl)ccc2n1 [Compound 86]
< 10	10 to 100	C=CC(=O)NC1CN(C(=O)CN(C)C)CC1Nc1ncc2cc(-c3c(Cl)c(OC)cc(OC)c3Cl)ccc2n1 (stereo not shown) [Compound 88]
< 10	10 to 100	C=CC(=O)N[C@H]1CN(S(=O)(=O)CC)C[C@H]1Nc1ncc2cc(-c3c(Cl)c(OC)cc(OC)c3Cl)ccc2n1 [Compound 89]
< 10	10 to 100	C=CC(=O)N[C@H]1CN(C(=O)CN2CCCC2)C[C@H]1Nc1ncc2cc(-c3c(Cl)c(OC)cc(OC)c3Cl)ccc2n1 [Compound 91]
> 1000		C=CC(=O)N[C@H]1CCN(C(=O)OC(C)(C)C)C[C@H]1Nc1ncc2cc(-c3c(Cl)c(OC)cc(OC)c3Cl)ccc2n1 [Compound 92]
